Experimental data published in article PMC11594329, “Development of LAT1-Selective Nuclear Medicine Therapeutics Using Astatine-211” (International Journal of Molecular Sciences, 2024).

What was measured:
[1] = Urinary and fecal excretion in ICR mice; type: in vivo
Experimental: (§1) Urinary excretion levels were also examined (Supplementary Table S1). Comparing the D-isomer and L isomer of ^211At-AAMT-O-Me from ICR mice, the D-isomer; 24.84 ± 13.03% ID, L-isomer; 33.69 ± 1.26% ID at 1 h after injection. D-isomer; 71.36 ± 4.67% ID, L-isomer; 23.99 ± 2.40% ID at 3 h after injection. From PANC-1 tumor bearing mice, D-isomer; 35.24 ± 8.70% ID, L-isomer; 20.40 ± 0.76% ID at 1 h after injection. D-isomer; 47.38 ± 3.19% ID, L-isomer; 3.23 ± 0.67% ID at 3 h after injection. In tumor-bearing models, the amount of excretion was smaller than that in normal mice. We have already reported that, in the presence of target cancer tissue for administered drugs, retention in the cancer tissue results in reduced excretion compared with normal animals. […] The same was also observed for feces, but very little was excreted in the feces. The results were as follows: from ICR mice, D-isomer; 0.06 ± 0.03% ID, L-isomer; 0.004 ± 0.003% ID at 1 h after injection. D-isomer; 0.02 ± 0.01% ID, L-isomer; 0.02 ± 0.01% ID at 3 h after injection. From PANC-1 tumor bearing mice, D-isomer; 0.25 ± 0.12% ID, L-isomer; 0.002 ± 0.001% ID at 1 h after injection. D-isomer; 0.75 ± 0.46% ID; L-isomer; 0.07 ± 0.03% ID at 3 h after injection.
ICR mice (male, 5 weeks old) were purchased from Japan SLC (Shizuoka, Japan) and acclimated for one week prior to use. The doses in the distribution experiments were as follows: ^211At-AAMT-O-Me-L (0.407 ± 0.005 MBq/mouse, 31.64 ± 0.76 g, n = 6), ^211At-AAMT-O-Me-D (0.351 ± 0.004 MBq/mouse, 31.44 ± 0.94 g, n = 6), ^211At-AAMT-O-Et-L (0.685 ± 0.010 MBq/mouse, 24.14 ± 3.31 g, n = 6), ^211At-AAMT-O-Pr-L (1.09 ± 0.06 MBq/mouse, 26.33 ± 0.39 g, n = 6)

[2] = Urinary and fecal excretion in PANC-1 tumor bearing mice; type: in vivo
Experimental: as §1
(§2) BALB/c nu/nu mice (male, 5 weeks old) were purchased from Japan SLC (Shizuoka, Japan) and subcutaneously transplanted at a density of 1 × 10^7 cells/mouse. PANC-1 cells that reached the logarithmic growth phase were transplanted subcutaneously by mixing a 1 × 10^8 cells/mL cell suspension with an equivalent volume of Matrigel (Corning, Corning, NY, USA) to obtain 1 × 10^7 cells per mouse. Experiments were performed after the size of the transplanted tumor had exceeded 50 mm^3. The doses in the distribution experiments were as follows: ^211At-AAMT-OH-L (0.501 ± 0.011 MBq/mouse, 19.91 ± 0.59 g, n = 3) and ^211At-AAMT-O-Me-L (0.384 ± 0.003 MBq/mouse, 19.18 ± 0.38 g, n = 6 for Table 3), ^211At-AAMT-O-Me-L (158.10 ± 2.94 kBq/mouse, 19.27 ± 0.64 g, n = 6) and ^211At-AAMT-O-Me-D (135.08 ± 2.35 kBq/mouse, 18.64 ± 0.97 g, n = 6), ^211At-AAMT-O-Et-L (0.682 ± 0.011 MBq/mouse, 20.25 ± 1.41 g, n = 6), ^211At-AAMT-O-Pr-L (0.927 ± 0.020 MBq/mouse, 21.74 ± 0.37 g, n = 6).

PANC-1 tumor model = test: Tissue distribution in nude mice (PANC-1 tumor model); type: in vivo, BALB/c nu/nu mice
Experimental: as §2

[3] = nude mice (PANC-1 tumor model), 1 h after injection
[4] = nude mice (PANC-1 tumor model), 3 h after injection
[5] = nude mice (PANC-1 tumor model), 24 h after injection
[6] = nude mice (PANC-1 tumor model), after 24 h

## COc1ccc(C[C@@](C)(N)C(=O)O)cc1[211At] [^211At-AAMT-O-Me-D]
[1]; 1 h after injection
  Excretion in feces: 0.06 ± 0.03 % ID
  Urinary excretion: 24.84 ± 13.03 % ID
[1]; 3 h after injection
  Excretion in feces: 0.02 ± 0.01 % ID
  Urinary excretion: 71.36 ± 4.67 % ID
[1]; after 3 h
  Urinary content: exceeded 70%
[2]; 1 h after injection
  Excretion in feces: 0.25 ± 0.12 % ID
  Urinary excretion: 35.24 ± 8.70 % ID
[2]; 3 h after injection
  Excretion in feces: 0.75 ± 0.46 % ID
  Urinary excretion: 47.38 ± 3.19 % ID
PANC-1 tumor model; [3]
  Tissue distribution, Bladder: 1.76 ± 1.64 %ID/g
  Tissue distribution, Blood: 3.52 ± 1.89 %ID/g
  Tissue distribution, Bone: 0.30 ± 0.12 %ID/g
  Tissue distribution, Brain: 0.15 ± 0.01 %ID/g
  Tissue distribution, Cecum: 2.35 ± 1.73 %ID/g
  Tissue distribution, Colon: 0.85 ± 0.49 %ID/g
  Tissue distribution, Heart: 0.53 ± 0.08 %ID/g
  Tissue distribution, Kidney: 1.40 ± 0.56 %ID/g
  Tissue distribution, Liver: 3.09 ± 0.39 %ID/g
  Tissue distribution, Lung: 2.24 ± 0.89 %ID/g
  Tissue distribution, Pancreas: 0.61 ± 0.44 %ID/g
  Tissue distribution, Salivary glands: 0.30 ± 0.10 %ID/g
  Tissue distribution, Small intestine: 2.05 ± 0.81 %ID/g
  Tissue distribution, Spleen: 1.70 ± 0.74 %ID/g
  Tissue distribution, Stomach: 1.43 ± 0.94 %ID/g
  Tissue distribution, Testis: 1.05 ± 0.77 %ID/g
  Tissue distribution, Thyroid: 0.14 ± 0.04 %ID/g
  Tissue distribution, Tumor: 3.25 ± 1.39 %ID/g
PANC-1 tumor model; [4]
  Tissue distribution, Bladder: 1.04 ± 0.97 %ID/g
  Tissue distribution, Blood: 1.92 ± 1.16 %ID/g
  Tissue distribution, Bone: 0.26 ± 0.12 %ID/g
  Tissue distribution, Brain: 0.10 ± 0.03 %ID/g
  Tissue distribution, Cecum: 1.32 ± 0.96 %ID/g
  Tissue distribution, Colon: 0.40 ± 0.25 %ID/g
  Tissue distribution, Heart: 0.37 ± 0.03 %ID/g
  Tissue distribution, Kidney: 1.54 ± 0.86 %ID/g
  Tissue distribution, Liver: 2.60 ± 0.07 %ID/g
  Tissue distribution, Lung: 1.27 ± 0.40 %ID/g
  Tissue distribution, Pancreas: 0.48 ± 0.35 %ID/g
  Tissue distribution, Salivary glands: 0.33 ± 0.13 %ID/g
  Tissue distribution, Small intestine: 1.48 ± 0.37 %ID/g
  Tissue distribution, Spleen: 1.81 ± 1.19 %ID/g
  Tissue distribution, Stomach: 1.29 ± 0.77 %ID/g
  Tissue distribution, Testis: 1.64 ± 1.26 %ID/g
  Tissue distribution, Thyroid: 0.14 ± 0.06 %ID/g
  Tissue distribution, Tumor: 3.84 ± 2.10 %ID/g

## COc1ccc(C[C@](C)(N)C(=O)O)cc1[211At] [^211At-AAMT-O-Me-L, (S)-2-amino-3-(3-(astato-^211At)-4-methoxyphenyl)-2-methylpropanic acid]
[1]; 1 h after injection
  Excretion in feces: 0.004 ± 0.003 % ID
  Urinary excretion: 33.69 ± 1.26 % ID
[1]; 3 h after injection
  Excretion in feces: 0.02 ± 0.01 % ID
  Urinary excretion: 23.99 ± 2.40 % ID
[2]; 1 h after injection
  Excretion in feces: 0.002 ± 0.001 % ID
  Urinary excretion: 20.40 ± 0.76 % ID
[2]; 3 h after injection
  Excretion in feces: 0.07 ± 0.03 % ID
  Urinary excretion: 3.23 ± 0.67 % ID
PANC-1 tumor model; [3]
  Tissue distribution, Bladder: 0.06 ± 0.00 %ID/g
  Tissue distribution, Blood: 7.85 ± 1.17 %ID/g
  Tissue distribution, Bone: 0.68 ± 1.27 %ID/g
  Tissue distribution, Brain: 0.46 ± 0.00 %ID/g
  Tissue distribution, Cecum: 0.46 ± 0.05 %ID/g
  Tissue distribution, Colon: 1.14 ± 0.27 %ID/g
  Tissue distribution, Heart: 0.86 ± 0.04 %ID/g
  Tissue distribution, Kidney: 3.56 ± 0.09 %ID/g
  Tissue distribution, Liver: 4.92 ± 0.24 %ID/g
  Tissue distribution, Lung: 5.16 ± 0.11 %ID/g
  Tissue distribution, Pancreas: 0.58 ± 0.01 %ID/g
  Tissue distribution, Salivary glands: 0.58 ± 0.05 %ID/g
  Tissue distribution, Small intestine: 3.40 ± 0.36 %ID/g
  Tissue distribution, Spleen: 4.34 ± 0.79 %ID/g
  Tissue distribution, Stomach: 1.32 ± 0.06 %ID/g
  Tissue distribution, Testis: 0.55 ± 0.02 %ID/g
  Tissue distribution, Thyroid: 0.20 ± 0.02 %ID/g
  Tissue distribution, Tumor: 7.83 ± 0.30 %ID/g
PANC-1 tumor model; [4]
  Tissue distribution, Bladder: 0.09 ± 0.01 %ID/g
  Tissue distribution, Blood: 10.38 ± 2.28 %ID/g
  Tissue distribution, Bone: 0.51 ± 1.35 %ID/g
  Tissue distribution, Brain: 0.29 ± 0.01 %ID/g
  Tissue distribution, Cecum: 0.43 ± 0.16 %ID/g
  Tissue distribution, Colon: 0.68 ± 0.23 %ID/g
  Tissue distribution, Heart: 0.76 ± 0.07 %ID/g
  Tissue distribution, Kidney: 2.29 ± 0.07 %ID/g
  Tissue distribution, Liver: 4.62 ± 0.20 %ID/g
  Tissue distribution, Lung: 5.10 ± 0.42 %ID/g
  Tissue distribution, Pancreas: 0.36 ± 0.10 %ID/g
  Tissue distribution, Salivary glands: 0.78 ± 0.18 %ID/g
  Tissue distribution, Small intestine: 2.50 ± 0.42 %ID/g
  Tissue distribution, Spleen: 3.97 ± 0.59 %ID/g
  Tissue distribution, Stomach: 1.31 ± 0.32 %ID/g
  Tissue distribution, Testis: 0.55 ± 0.11 %ID/g
  Tissue distribution, Thyroid: 0.23 ± 0.04 %ID/g
  Tissue distribution, Tumor: 10.29 ± 0.88 %ID/g
PANC-1 tumor model; [5]
  Tissue distribution, Bladder: 0.55 ± 0.13 %ID/g
  Tissue distribution, Blood: 0.88 ± 0.23 %ID/g
  Tissue distribution, Bone: 0.75 ± 0.18 %ID/g
  Tissue distribution, Brain: 0.13 ± 0.04 %ID/g
  Tissue distribution, Cecum: 2.09 ± 0.41 %ID/g
  Tissue distribution, Colon: 1.69 ± 0.15 %ID/g
  Tissue distribution, Heart: 1.29 ± 0.42 %ID/g
  Tissue distribution, Kidney: 1.67 ± 0.49 %ID/g
  Tissue distribution, Liver: 0.92 ± 0.15 %ID/g
  Tissue distribution, Lung: 4.43 ± 1.76 %ID/g
  Tissue distribution, Pancreas: 0.59 ± 0.17 %ID/g
  Tissue distribution, Salivary glands: 13.65 ± 5.31 %ID/g
  Tissue distribution, Small intestine: 1.49 ± 0.29 %ID/g
  Tissue distribution, Spleen: 3.12 ± 2.06 %ID/g
  Tissue distribution, Stomach: 8.89 ± 2.65 %ID/g
  Tissue distribution, Testis: 1.18 ± 0.25 %ID/g
  Tissue distribution, Thyroid: 9.37 ± 3.33 %ID/g
  Tissue distribution, Tumor: 1.86 ± 0.39 %ID/g
PANC-1 tumor model; [6]
  Accumulation remaining in tumors relative to ^211At-AAMT-OH-L: 2.6 times
  Blood intensity relative to ^211At-AAMT-OH-L: 22 times
PANC-1 tumor model; tumor-bearing mice versus ICR mice
  Increase of blood intensity in tumor-bearing mice compared with normal animals: 5 fold
